Columns and labels:
bFGF [1] = biological target: T1, bFGF (Homo sapiens, UniProt P09038); experiment: Evaluation of bFGF stabilization in Lonza serum-free medium (ELISA); format: biochemical
T1 construct: purchased Lonza (via TAKARA BIO INC.) Ser. No. 00/190,632
Procedure, shortened: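 Compound in PBS diluted 10-fold into serum-free medium and held sealed at 37 °C for 7 days (some sets 3 days). Remaining bFGF quantified by human bFGF sandwich ELISA against a standard curve. Controls were compound-free PBS-medium kept at 37 °C or 4 °C for the same period.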

[2] = Measurement of content level of sulfur in test compound (ICP); format: physicochemical
Procedure, shortened: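 Sulfur content was measured by ICP emission spectrometry on samples containing 0.01 wt % test compound. Values came from a calibration curve of sulfur standards at 0, 1, 10, 30 and 50 ppm.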

[3] = system: Human bone marrow-derived mesenchymal stem cells; experiment: Mesenchymal stem cell proliferation system (cell number by DNA quantification); conditions: growth of mesenchymal stem cell, control ratio
bFGF [4] = biological target: T1, bFGF; experiment: Evaluation of bFGF stabilization in Essential 8 medium (ELISA); format: biochemical; conditions: 37° C. for 7 days
Procedure, shortened: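 Test compound in PBS diluted 10-fold into serum-free medium (Essential 8 or ReproFF2), held sealed at 37° C for 7 days; remaining bFGF quantified by ELISA against a standard curve. Controls: PBS without compound diluted into each medium, held 7 days at 37° C or 4° C.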

[5] = compound used in the Examples, stated in the description

T1 sequence (P09038 143-288): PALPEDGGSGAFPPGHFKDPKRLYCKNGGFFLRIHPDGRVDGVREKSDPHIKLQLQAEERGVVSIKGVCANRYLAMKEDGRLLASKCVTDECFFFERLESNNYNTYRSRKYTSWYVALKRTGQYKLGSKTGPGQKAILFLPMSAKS

For `O=S(=O)([O-])OC[C@H]1O[C@@](COS(=O)(=O)[O-])(O[C@H]2O[C@H](COS(=O)(=O)[O-])[C@@H](OS(=O)(=O)[O-])[C@H](OS(=O)(=O)[O-])[C@H]2OS(=O)(=O)[O-])[C@@H](OS(=O)(=O)[O-])[C@@H]1OS(=O)(=O)[O-].[K+].[K+].[K+].[K+].[K+].[K+].[K+].[K+]` [sucrose 8SO3K], the “concentration showing a suppressive effect on a decrease in the bFGF concentration in the medium” value (bFGF [1]; Lonza serum-free medium, 37° C. for 3 days) was “not less than 250 ng/ml”, the “bFGF concentration relative to that of 4° C. control (ELISA)” value (shortened to “bFGF concentration relative to that”) (bFGF [1]; Lonza serum-free medium, 37° C. for 3 days, test compound 25 ng/ml) was “x (bFGF concentration was less than 10% relative to that of 4 °C control)” and the “bFGF concentration relative to that” value (bFGF [1]; Lonza serum-free medium, 37° C. for 3 days, test compound 250 ng/ml) was “− (bFGF concentration was not less than 10% and less than 30% relative to that of 4 °C control)”. The “bFGF concentration relative to that” value (bFGF [1]; Lonza serum-free medium, 37° C. for 3 days, test compound 25 μg/ml) was “+++ (bFGF concentration was not less than 70% relative to that of 4 °C control)”, the “bFGF concentration relative to that” value (bFGF [1]; Lonza serum-free medium, 37° C. for 3 days, test compound 250 μg/ml) was “+++ (bFGF concentration was not less than 70% relative to that of 4 °C control)” and the “bFGF concentration relative to that” value (bFGF [1]; Lonza serum-free medium, 37° C. for 7 days, test compound 25 ng/ml) was “x (bFGF concentration was less than 10% relative to that of 4 °C control)”. The “bFGF concentration relative to that” value (bFGF [1]; Lonza serum-free medium, 37° C. for 7 days, test compound 250 ng/ml) was “x (bFGF concentration was less than 10% relative to that of 4 °C control)”, the “bFGF concentration relative to that” value (bFGF [1]; Lonza serum-free medium, 37° C. for 7 days, test compound 25 μg/ml) was “− (bFGF concentration was not less than 10% and less than 30% relative to that of 4 °C control)” and the “bFGF concentration relative to that” value (bFGF [1]; Lonza serum-free medium, 37° C. for 7 days, test compound 250 μg/ml) was “+ (bFGF concentration was not less than 30% and less than 50% relative to that of 4 °C control)”. For the same compound, the “effectiveness ELISA” value (bFGF [1]; effectiveness in ELISA evaluation of mesenchymal stem cells (medium), 4° C. control ratio) was “+ (+ 30%<)”, the “sulfur content Found (inorganic analysis)” value ([2]; ICPS-8100, evaluation samples containing 0.01 wt % test compound) was 17 wt % and the “sulfate group / sulfo group content level” value [2, 5] was 48.8 wt %. For the same compound, the “sulfur content (content level of sulfur)” value [2, 5] was 19.5 wt %, the effectiveness cells [3] was “⊚ (⊚ not less than 120%)” and the “concentration showing a suppressive effect on a decrease in the bFGF concentration of the medium” value (bFGF [4]) was “not less than 2.5 μg/ml”. For the same compound, the “bFGF concentration relative to that” value (bFGF [4]; test compound 250 pg/ml) was “x (bFGF concentration was less than 10% relative to that of 4 °C control)”, the “bFGF concentration relative to that” value (bFGF [4]; test compound 25 ng/ml) was “x (bFGF concentration was less than 10% relative to that of 4 °C control)” and the “bFGF concentration relative to that” value (bFGF [4]; test compound 250 ng/ml) was “x (bFGF concentration was less than 10% relative to that of 4 °C control)”. The “bFGF concentration relative to that” value (bFGF [4]; test compound 25 μg/ml) was “+++ (bFGF concentration was not less than 70% relative to that of 4 °C control)” and the “bFGF concentration relative to that” value (bFGF [4]; test compound 250 μg/ml) was “+++ (bFGF concentration was not less than 70% relative to that of 4 °C control)”.

— patent US10689622B2, “Culture medium for proliferating stem cell, which contains sulfated compound” (AJINOMOTO CO., INC., priority 2012, dated 2020)
